Experimental data from patent US20180338980A1, “AROMATIC SULFONAMIDE DERIVATIVES” (BAYER PHARMA AKTIENGESELLSCHAFT, priority 2015, published 2018).
“And” between values parts separate entries of the source, which are not always exact repeats. Identical values can stand only once.

How the values were obtained:
P2X4 [1] = molecular target: T1, P2X4 (Homo sapiens, UniProt Q99571); experiment: Assay B: human P2X4 receptor cell line, mitochondrial photina luminescence (agonist Bz-ATP at EC50); assay type: cell-based; set-up: host or cells: HEK 293 (recombinant, constitutively expressing; with mitochondrial photina in Assay B); details: HEK human P2X4 cell line, photina luminescence, agonist Bz-ATP at EC50, average; for Emax: read-out: human P2X4 Assay B avg Efficacy
T1 sequence (Q99571 1-388): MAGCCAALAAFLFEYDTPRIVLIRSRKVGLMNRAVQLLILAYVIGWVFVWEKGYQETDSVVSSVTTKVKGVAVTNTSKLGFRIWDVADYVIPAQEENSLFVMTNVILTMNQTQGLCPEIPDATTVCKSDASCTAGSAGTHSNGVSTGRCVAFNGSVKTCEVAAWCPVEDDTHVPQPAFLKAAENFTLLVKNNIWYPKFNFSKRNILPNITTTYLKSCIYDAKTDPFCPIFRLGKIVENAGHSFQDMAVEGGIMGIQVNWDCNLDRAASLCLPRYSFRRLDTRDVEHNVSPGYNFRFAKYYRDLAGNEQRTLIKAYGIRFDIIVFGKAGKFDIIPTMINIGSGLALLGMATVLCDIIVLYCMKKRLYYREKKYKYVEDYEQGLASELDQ
How it was run: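 Bz-ATP at its EC50 activates human P2X4 stably expressed in a cell line that also carries the calcium-sensitive photoprotein mitochondrial photina (coelenterazine cofactor). Light emitted on calcium influx is measured straight away in a luminometer. Reduced luminescence indicates antagonism.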

P2X4 [2] = molecular target: T1, P2X4; experiment: Assay A: human P2X4 receptor cell line, FLIPR calcium assay (Fluo-8, agonist Bz-ATP at EC80); assay type: cell-based; set-up: host or cells: HEK 293 (recombinant, constitutively expressing; with mitochondrial photina in Assay B); details: HEK human P2X4 cells, Fluo-8 FLIPR; for IC50: Bz-ATP at EC80, average values; for Emax: percentage of maximal inhibition, read-out: human P2X4 Assay A avg Efficacy
Description: A fluorescent imaging plate reader (FLEX/FLIPR station; Molecular Devices) was used to monitor intracellular calcium levels using the calcium-chelating dye Fluo-8 (Molecular Probes). […] Cells expressing purinergic receptors human P2X4 (HEK human P2X4: PerkinElmer, Product No.: AX-015-PCF) were plated at a density of 20,000 cells/well in poly-D-lysine-coated 384-well plates approximately 20 hours before beginning the assay. On the day of the assay, the medium was removed and 30 μl of dye buffer (Hank's balanced salt solution, 10 mM HEPES, 1.8 mM CaCl2), 1 mM MgCl2, 2 mM probenecid, 5 mM D-glucose monohydrate, 5 μM Fluo-8, pH=7.4) was added for 30 min at […] and 5% CO2. The antagonist in probenecid buffer (Hank's balanced salt solution, 10 mM HEPES, 1.8 mM CaCl2, 1 mM MgCl2, 2 mM probenecid, 5 mM D-glucose monohydrate, pH=7.4) was added in a volume of 10 μl and allowed to incubate for 30 min at room temperature. The final assay DMSO concentration is 0.5%. The agonist, Bz-ATP, is added in a volume of 10 μl at a concentration representing the EC80 value. The fluorescence was measured for an interval of 120 sec at 2 sec intervals and analyzed based on the increase in peak relative fluorescence units (RFU) compared to the basal fluorescence. Peak fluorescence was used to determine the response to agonist obtained at each concentration of antagonist by the following equation:
% Response=100*(RFU(drug)−RFU(control))/(RFU(DMSO)−RFU(control))
The compounds were tested in triplicates per plate and mean values were plotted in Excel XLFit to determine IC50 values, percentage of maximal inhibition and the Hill coefficients.

Compound | IC50 (P2X4 [1]) [nM] | Emax (P2X4 [1]) [%] | IC50 (P2X4 [2]) | Emax (P2X4 [2]) [%]
CC(Oc1ccc(NC(=O)Cc2ccccc2Cl)cc1S(N)(=O)=O)c1ccccc1 (single isomer, unassigned) [Example 148A, 2-(2-Chlorophenyl)-N-[4-(1-phenylethoxy)-3-sulfamoylphenyl]acetamide] | 143 | 68 | 74 nM | 92
CN(C)c1cccc(Oc2ccc(NC(=O)Cc3ccccc3Cl)cc2S(N)(=O)=O)c1 [Example 002, 2-(2-Chlorophenyl)-N-{4-[3-(dimethylamino)phenoxy]-3-sulfamoylphenyl}acetamide] | 79 | 81 | 29 nM | 96
CC(C)c1cccc(Oc2ccc(NC(=O)Cc3ccccc3Cl)cc2S(N)(=O)=O)c1 [Example 004, 2-(2-Chlorophenyl)-N-[4-(3-isopropylphenoxy)-3-sulfamoylphenyl]acetamide] | 95 | 68 | 149 nM | 90
NS(=O)(=O)c1cc(NC(=O)Cc2ccccc2Cl)ccc1Oc1cccc(C(F)(F)F)c1 [Example 005, 2-(2-Chlorophenyl)-N-{3-sulfamoyl-4-[3-(trifluoromethyl)phenoxy]phenyl}acetamide] | 90 | 89 | 77 nM | 94
NS(=O)(=O)c1cc(NC(=O)Cc2ccccc2Cl)ccc1Oc1cccc(OC(F)(F)F)c1 [Example 006, 2-(2-Chlorophenyl)-N-{3-sulfamoyl-4-[3-(trifluoromethoxy)phenoxy]phenyl}acetamide] | 73 | 108 | 99 nM | 87
[2H]c1c([2H])c([2H])c(Oc2ccc(NC(=O)Cc3ccccc3Cl)cc2S(N)(=O)=O)c([2H])c1[2H] [Example 261, 2-(2-Chlorophenyl)-N-{4-[(^2H5)phenyloxy]-3-sulfamoylphenyl}acetamide] |  |  |  | 89
[2H]c1c([2H])c(Oc2ccc(NC(=O)Cc3ccccc3Cl)cc2S(N)(=O)=O)c([2H])c([2H])c1Cl [Example 262, 2-(2-Chlorophenyl)-N-(4-{[4-chloro(^2H4)phenyl]oxy}-3-sulfamoylphenyl)acetamide] |  |  | 42 nM | 54
[2H]c1c([2H])c([2H])c(Oc2ccc(NC(=O)Cc3ccccc3Cl)cc2S(N)(=O)=O)c(Cl)c1[2H] [Example 263, 2-(2-Chlorophenyl)-N-(4-{[2-chloro(^2H4)phenyl]oxy}-3-sulfamoylphenyl)acetamide] |  |  |  | 95
CC1(C)CC(COc2ccc(NC(=O)Cc3ccccc3Cl)cc2S(N)(=O)=O)CCO1 (stereo not shown) [Example 265, 2-(2-Chlorophenyl)-N-{4-[(2,2-dimethyltetrahydro-2H-pyran-4-yl)methoxy]-3-sulfamoylphenyl}acetamide] |  |  | 416 nM | 74
NS(=O)(=O)c1cc(NC(=O)Cc2ccccc2Cl)ccc1OC[C@H]1[C@@H]2COC[C@@H]21 [Example 266, 2-(2-Chlorophenyl)-N-{4-[(1R,5S,6r)-3-oxabicyclo[3.1.0]hex-6-ylmethoxy]-3-sulfamoylphenyl}acetamide] |  |  | 63 nM | 89
NS(=O)(=O)c1cc(NC(=O)Cc2ccccc2Cl)ccc1OCC1(Cl)CCOCC1 [Example 267, 2-(2-Chlorophenyl)-N-{4-[(4-chlorotetrahydro-2H-pyran-4-yl)methoxy]-3-sulfamoylphenyl}acetamide] |  |  | 4440 nM | 76
NS(=O)(=O)c1cc(NC(=O)Cc2ccccc2Cl)ccc1OCC1COCCO1 (stereo not shown) [Example 268, 2-(2-Chlorophenyl)-N-[4-(1,4-dioxan-2-ylmethoxy)-3-sulfamoylphenyl]acetamide] |  |  |  | 77
NS(=O)(=O)c1cc(NC(=O)Cc2ccc(F)cc2Cl)ccc1OCC1CCOCC1 [Example 282, 2-(2-Chloro-4-fluorophenyl)-N-[3-sulfamoyl-4-(tetrahydro-2H-pyran-4-ylmethoxy)phenyl]acetamide] |  |  |  | 82
NS(=O)(=O)c1cc(NC(=O)Cc2ccccc2Cl)ccc1Oc1ccc(C(F)(F)F)nc1 [Example 283, 2-(2-Chlorophenyl)-N-(3-sulfamoyl-4-{[6-(trifluoromethyl)pyridin-3-yl]oxy}phenyl)-acetamide] |  |  | 8050 nM | 62
NS(=O)(=O)c1cc(NC(=O)Cc2ccccc2Cl)ccc1Oc1cc(C(F)(F)F)c(Cl)cn1 [Example 284, 2-(2-Chlorophenyl)-N-(4-{[5-chloro-4-(trifluoromethyl)pyridin-2-yl]oxy}-3-sulfamoyl-phenyl)acetamide] |  |  | 10900 nM | 82
NS(=O)(=O)c1cc(NC(=O)Cc2ccccc2Cl)ccc1Oc1cnc(Cl)c(F)c1 [Example 286, N-{4-[(6-Chloro-5-fluoropyridin-3-yl)oxy]-3-sulfamoylphenyl}-2-(2-chlorophenyl)-acetamide] |  |  | 237 nM | 55
NS(=O)(=O)c1cc(NC(=O)Cc2ccccc2Cl)ccc1OCC1(O)CCC(F)(F)CC1 [Example 287, 2-(2-Chlorophenyl)-N-{4-[(4,4-difluoro-1-hydroxycyclohexyl)methoxy]-3-sulfamoyl-phenyl}acetamide] |  |  | 187 nM | 58
NS(=O)(=O)c1cc(NC(=O)Cc2ccccc2Cl)ccc1OCC1(O)CCCCC1 [Example 288, 2-(2-Chlorophenyl)-N-{4-[(1-hydroxycyclohexyl)methoxy]-3-sulfamoylphenyl}-acetamide] |  |  | 988 nM | 57
NS(=O)(=O)c1cc(NC(=O)Cc2ccccc2F)cc(F)c1Oc1cccc(Cl)c1 [Example 289, N-[4-(3-Chlorophenoxy)-3-fluoro-5-sulfamoylphenyl]-2-(2-fluorophenyl)acetamide] |  |  | > 25000 nM | 34
NS(=O)(=O)c1cc(NC(=O)Cc2ccccc2C(F)F)cc(F)c1Oc1cccc(Cl)c1 [Example 290, N-[4-(3-Chlorophenoxy)-3-fluoro-5-sulfamoylphenyl]-2-[2-(difluoromethyl)-phenyl]acetamide] |  |  | 16000 nM | 66
NS(=O)(=O)c1cc(NC(=O)Cc2ccccc2Cl)cc(F)c1Oc1cccc(Cl)c1 [Example 291, N-[4-(3-Chlorophenoxy)-3-fluoro-5-sulfamoylphenyl]-2-(2-chlorophenyl)acetamide] |  |  | 10500 nM and > 25000 nM | 57
NS(=O)(=O)c1cc(NC(=O)Cc2cc(F)ccc2Cl)cc(F)c1Oc1cccc(Cl)c1 [Example 292, 2-(2-Chloro-5-fluorophenyl)-N-[4-(3-chlorophenoxy)-3-fluoro-5-sulfamoyl-phenyl]acetamide] |  |  | 15100 nM | 69
NS(=O)(=O)c1cc(NC(=O)Cc2ccccc2F)cnc1Oc1cccc(Cl)c1 [Example 293, N-[6-(3-Chlorophenoxy)-5-sulfamoylpyridin-3-yl]-2-(2-fluorophenyl)acetamide] |  |  | 72 nM | 67
NS(=O)(=O)c1cc(NC(=O)Cc2ccccc2C(F)(F)F)cnc1Oc1cccc(Cl)c1 [Example 294, N-[6-(3-Chlorophenoxy)-5-sulfamoylpyridin-3-yl]-2-[2-(trifluoromethyl)phenyl]-acetamide] |  |  | 107 nM | 84
NS(=O)(=O)c1cc(NC(=O)Cc2ccccc2C(F)F)cnc1Oc1cccc(Cl)c1 [Example 295, N-[6-(3-Chlorophenoxy)-5-sulfamoylpyridin-3-yl]-2-[2-(difluoromethyl)phenyl]-acetamide] |  |  | 155 nM | 85
NS(=O)(=O)c1cc(NC(=O)Cc2cc(F)ccc2Cl)cnc1Oc1cccc(Cl)c1 [Example 296, 2-(2-Chloro-5-fluorophenyl)-N-[6-(3-chlorophenoxy)-5-sulfamoylpyridin-3-yl]-acetamide] |  |  | 59 nM | 78
